Reference: paper PMC5929447 (Oncotarget, 2018)

Assays:
BCL-XL [1] = biological target: T1, BCL-XL (Homo sapiens, UniProt Q07817); assay: Fluorescence polarization (FP) with Fluorescein-PUMA, BCL-XL; type: binding; details: Fluorescein-PUMA as binder; read-out: FP_BCL-XL_KI
Experimental: (§1) Final concentrations of MCL-1, BFL-1, BCL-2 and BCL-XL proteins were 10, 10, 10 and 20 nM respectively. The assay plates were incubated for 2 hours at room temperature and the FP was measured on a Synergy 2 reader (Ex. 528 nm, Em. 640 nm, Cut-off 510 nm). The binding of increasing doses of compound was expressed as a percentage reduction in mP compared to the window established between ‘DMSO only’ and ‘total inhibition’ control (30 μM PUMA). […] The KI was subsequently calculated as previously described [42].

[2] = test system: Burkitt lymphoma cell lines; assay: CellTiter-Glo viability, Burkitt lymphoma cell line panel; type: cell-based; details: 72 h; all Burkitt lymphoma cell lines tested
Experimental: Cells were seeded into 96-well plates and treated at 8 points with 1:2 serial dilution of compounds. Cell viability was assessed and assayed for viability using CellTiter-Glo reagent (Promega) following the manufacturer's instructions. Plates were read using Tecan luminescence plate reader. Results were normalized to the viability of cells without compounds (control wells). The IC50 values were calculated using nonlinear regression algorithms in XCell software.

RS4;11 xenograft = RS4;11 xenograft efficacy; type: in vivo, mice; details: for Mean TV change: day 17, mean ± s.e.m.; for % T/C: day 17 post treatment start
Experimental: Experiments were performed in SCID/beige female mice from Charles River Laboratories, Massachusetts, USA. Animals, approximately 7-8 weeks of age at the start of the treatment were allowed to acclimate in animal facility with access to food and water ad libitum for 3 days prior to manipulation. Animals were handled in accordance with IACUC regulations and guidelines for experiments performed in the USA and with European and French regulation for the protection of vertebrate animals for experiments performed in France. Animal well-being and behavior, including grooming and ambulation were monitored at least once a day. General health of mice was monitored and mortality recorded daily. Any moribund animals were sacrificed. RS4;11 Acute Lymphoblastic Leukemia cell lines was obtained from ATCC. Toledo (Diffuse Large B-Cell Lymphoma) human cell lines were obtained internally through Bioresources and the Novartis-Cancer Cell Line Encyclopedia. Cells were free of Mycoplasma and murine viral contamination in the IMPACT VIII PCR assay panel ([…] laboratories INC, Westbrook, ME, USA). […] Cells were resuspended in a 1:1 mixture of cold DPBS (Dulbecco's Phosphate-Buffered Saline) and Matrigel^TM (Becton-Dickinson #354234) at a concentration of 3 × 10^7 cells/ml for Toledo cells, and of 1 × 10^7 cells/ml for RS4;11 cells. […] Body weights were recorded and tumors were measured with digital calipers twice to three times a week. Tumor volume was calculated using the formula: length × width^2/2. Percent changes in body weights was calculated as (BWcurrent - BWinitial)/(BWinitial) × 100. Data is presented as percent body weight change from the day of treatment initiation. When tumors reached approximately 200 mm^3 for efficacy studies or 300 mm^3 for pharmacodynamic studies, mice were randomized. […] Mice were treated via oral gavage at 10 ml/kg with the doses and schedules described in the figure. […] Regression = 100 × ΔT/Tinitial if ΔT < 0 where: T = mean tumor burden of the drug-treated group on the final day of the study; ΔT = mean tumor burden of the drug-treated group on the final day of the study - mean tumor burden of the drug-treated group on initial day of dosing; Tinitial = mean tumor burden of the drug-treated group on initial day of dosing; C = mean tumor burden of the control group on the final day of the study; and ΔC = mean tumor burden of the control group on the final day of the study - mean tumor burden of the control group on initial day of dosing. If the tumor volume was less than 14 mm^3 for more than 3 consecutive measurements, animals were considered in complete regression (CR).

platelets = assay: Platelet counts in RS4;11-bearing mice; type: in vivo; details: 25 and 100 mg/kg single oral dose, 16 h post dosing
Experimental: When tumors reached approximately 200 mm^3 for efficacy studies or 300 mm^3 for pharmacodynamic studies, mice were randomized. […] Mice were treated via oral gavage at 10 ml/kg with the doses and schedules described in the figure.
For pharmacodynamic studies, blood and tumors were removed 16 h post dosing and immediately snap-frozen. Total proteins were extracted from the tumors and caspase-3 activity was assessed in triplicate using CaspACE® Assay System (Promega). Platelet cell counts were determined 16 hours post dosing using Coulter AcT diff (Beckman).

[3] = Body weight in Toledo-bearing mice; type: in vivo; details: doses up to 300 mg/kg, oral five times a week for 3 weeks
Experimental: For each experiment, female SCID/beige mice were implanted subcutaneously (right axillary region) with 3 × 10^6 Toledo or RS4;11 (1 × 10^6 cells for efficacy studies and 1 × 10^7 cells for pharmacodynamics studies) suspended in 1:1 mixture of cold DPBS and Matrigel™ in a total volume of 100 μl. Body weights were recorded and tumors were measured with digital calipers twice to three times a week. Tumor volume was calculated using the formula: length × width^2/2. Percent changes in body weights was calculated as (BWcurrent - BWinitial)/(BWinitial) × 100. Data is presented as percent body weight change from the day of treatment initiation.

BCL-XL [4] = biological target: T1, BCL-XL; assay: Isothermal titration calorimetry (ITC), BCL-XL; type: binding; details: 25 °C; read-out: ITC_BCL-XL_KD
Experimental: The protein was dialyzed prior to use in 2 L of 25 mM HEPES, 150 mM NaCl, 5% glycerol (v/v), 0.5% MTG (v/v) at pH 7.4 for 3 hours at room temperature. The protein was dialyzed using a 3.5 K MWCO Slide-A-Lyzer™ cassette. The protein solution was recovered, spin-filtered through a […] frit. The filtered protein was quantified by UV absorbance at 280 nm using an extinction coefficient of 36440 M^-1cm^-1. 500 ml of dialysis buffer was retained (remainder used to rinse out SCHOT bottle) and degassed for a minimum of 30 mins under vacuum with constant stirring. […] The solutions were carefully matched to ensure same solvent and buffer conditions were present in both syringe and cell (this is to minimize heat of dilution effects). The final solution was the dialysis buffer plus 1% DMSO and 0.05% P20. The experiment was performed over 13 injections with stirring at 1000 rpm, gain setting low and at 25° C. Pure water was used in the reference cell. The first injection was 0.5 μl with a duration of 1 second with a gap of 150 seconds until the further 12 injections of 3.05 μl with a duration 6.1 seconds and a 240 second interval between injections. Data was analyzed using the vendor supplied software, PEAQ-ITC Analysis Software. The data model used was the single site model. The data shown is the average of 2 or 3 independent experiments.

BFL-1 = biological target: T2, BFL-1 (Homo sapiens, UniProt Q16548); assay: Fluorescence polarization (FP) with Fluorescein-PUMA, BFL-1
T2 sequence (Q16548 1-175): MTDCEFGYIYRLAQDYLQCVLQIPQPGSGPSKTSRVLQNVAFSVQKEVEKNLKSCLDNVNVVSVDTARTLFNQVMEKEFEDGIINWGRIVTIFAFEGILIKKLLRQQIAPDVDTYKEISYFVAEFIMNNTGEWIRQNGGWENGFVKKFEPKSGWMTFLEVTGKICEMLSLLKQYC
Experimental: as §1

[5] = 100 mg/kg oral daily for 7 days

T1 sequence (Q07817 whole entry): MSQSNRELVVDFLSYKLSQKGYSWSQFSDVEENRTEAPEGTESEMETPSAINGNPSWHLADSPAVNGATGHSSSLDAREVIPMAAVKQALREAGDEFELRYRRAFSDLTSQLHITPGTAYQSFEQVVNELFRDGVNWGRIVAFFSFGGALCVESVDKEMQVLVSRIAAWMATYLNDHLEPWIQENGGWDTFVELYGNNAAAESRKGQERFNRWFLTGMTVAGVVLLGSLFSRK

Ki (BCL-XL [1]): 520 nM | IC50 [2]: > 10000 nM | platelet counts in vivo (platelets): did not induce platelet loss | Kd (BCL-XL [4]): 186 nM | binding to BFL-1 (BFL-1; FP): No significant binding | FP_BFL-1, % of inhibition at the maximal tested concentration (BFL-1; at 5E-06 M): 7.4%@5E-06
Compound: O=C(c1cc(-c2cc3c(cc2C(=O)N2Cc4ccccc4C[C@H]2CN2CCOCC2)OCO3)n2c1CCCC2)N(c1ccccc1)c1ccc(O)cc1 [S55746]
Mean TV change (RS4;11 xenograft; 25 mg/kg oral daily for 7 days): 782.38 ± 107.32 mm3 | % T/C (RS4;11 xenograft; 25 mg/kg oral daily for 7 days): 67.1 % T/C | Mean TV change (RS4;11 xenograft; 50 mg/kg oral daily for 7 days): 190.50 ± 76.72 mm3 | % T/C (RS4;11 xenograft; 50 mg/kg oral daily for 7 days): 16.3 % T/C | complete regression (RS4;11 xenograft; [5]): complete regression observed in all animals | Mean TV change (RS4;11 xenograft; [5]): –98.13 ± 11.62 mm3 | body weight compared to the vehicle control group [3]: did not significantly differ
